This assay addresses T1, mouse VISTA (mVISTA) (Mus musculus, UniProt Q9D659).
T1 construct: expressed in transfected cells; host or cells: Human embryonic kidney 293T cells
T1 sequence (Q9D659 33-308): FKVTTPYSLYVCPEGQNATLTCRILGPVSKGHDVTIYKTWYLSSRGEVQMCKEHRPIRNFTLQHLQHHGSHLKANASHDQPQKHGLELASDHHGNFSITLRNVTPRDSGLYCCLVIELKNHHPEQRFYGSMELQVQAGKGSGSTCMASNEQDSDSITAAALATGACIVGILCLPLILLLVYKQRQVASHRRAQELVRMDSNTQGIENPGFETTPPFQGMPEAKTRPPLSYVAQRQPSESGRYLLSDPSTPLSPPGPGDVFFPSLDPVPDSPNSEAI
The assay can be described thus: Cell-Based Binding High-Content Assay For mVISTA (HC CBA mVISTA). The conditions noted are these: read-out: HC CBA mVISTA IC50. The method in brief: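 mVISTA-293T, 4,000 cells/well; cpd ± washout step; biotin-peptide 2 nM final, 30 min RT; SA-Alexa 647 30 min; formaldehyde/Hoechst fix; HCS imaging; 4PL IC50.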

Where [1] appears, read: 293T cells expressing mouse VISTA, competition with biotinylated peptide (2 nM).
Where [2] appears, read: the 19th table, scaffold drawing 22.
[3] abbreviates: cell-based binding high-content assay, mVISTA, the 16th table.

Read-outs that look alike come from different tables or passages of the source. Starred links: 1 amine or outer side, 2 acyl side, 3 side chain; linkers in the order of their positions; H or OH if unused. Positions of bridges follow the written chain, without caps; N, C: chain ends. Non-standard residues stand in square brackets, D forms with d. Residues, ends and D or L forms follow the SMILES beside them. ξ: configuration not given here. Phe(4-CONH2) = NC(=O)c1ccc(C[C@H](N)C(=O)O)cc1; Morpholine(3S-CO) = O=C(O)[C@@H]1COCCN1; Phe(3-Me) = Cc1cccc(C[C@H](N)C(=O)O)c1; γGlu = O=C(O)[C@H](CCC(=O)[*:2])N[*:1]; 2Nal = N[C@@H](Cc1ccc2ccccc2c1)C(=O)O; βAsp = O=C(O)[C@H](CC(=O)[*:2])N[*:1]; NMeY = CN[C@@H](Cc1ccc(O)cc1)C(=O)O; Cit = NC(=O)NCCC[C@H](N)C(=O)O; Ile(3ξ) = CCC(C)[C@H](N)C(=O)O; NMeL = CN[C@@H](CC(C)C)C(=O)O; Ahp(2) = CCCCC[C@H](N)C(=O)O; NMeNle = CCCC[C@H](NC)C(=O)O; Tle = CC(C)(C)[C@H](N)C(=O)O; NHexGly = CCCCCCNCC(=O)O; NMeA = CN[C@@H](C)C(=O)O; Nle = CCCC[C@H](N)C(=O)O; Orn = NCCC[C@H](N)C(=O)O; Aun = NCCCCCCCCCCC(=O)O; Nva = CCC[C@H](N)C(=O)O; AEEA = NCCOCCOCC(=O)O

The IC50 is the midpoint of a concentration-inhibition curve. For `CCCCCCN1CC(=O)N[C@@H](Cc2ccc(O)cc2)C(=O)N[C@@H](CCC)C(=O)N[C@@H](CC(N)=O)C(=O)N[C@@H](CCCNC(=N)N)C(=O)N(C)[C@@H](CCCC)C(=O)N[C@@H](CCCCC)C(=O)N2CCC[C@H]2C(=O)N[C@@H](C(C)(C)C)C(=O)N[C@@H](CC(=O)O)C(=O)N[C@H](C(=O)NCCOCCOCC(=O)N[C@@H](CCC(=O)NCCOCCOCC(=O)NCCCCCCCCCCC(=O)O)C(=O)O)CSCC(=O)N[C@@H](Cc2ccccc2)C(=O)N[C@@H](Cc2c[nH]c3ccccc23)C(=O)N[C@@H](CC(=O)O)C1=O` [compound 2255] ({CH2CO}-FWD[NHexGly]Y[Nva]NR[NMeNle][Ahp(2)]P[Tle]DC[AEEA][γGlu][AEEA][Aun]-OH; thioether N-14), the IC50 stood at 26.8 nM.

On to `CCCCCCN1CC(=O)N[C@@H](Cc2ccc(O)cc2)C(=O)N[C@@H](CCCC)C(=O)N[C@@H](CC(N)=O)C(=O)N[C@@H](CCCNC(N)=O)C(=O)N(C)[C@@H](CCCC)C(=O)N[C@@H](CCCCC)C(=O)N2CCC[C@H]2C(=O)N[C@@H](C(C)C)C(=O)N[C@@H](CC(=O)O)C(=O)N[C@H](C(=O)NCC(=O)O)CSCC(=O)N[C@@H](Cc2ccc3ccccc3c2)C(=O)N[C@@H](Cc2c[nH]c3ccccc23)C(=O)N[C@@H](CC(=O)O)C1=O` [compound 1253] ({CH2CO}-[2Nal]WD[NHexGly]Y[Nle]N[Cit][NMeNle][Ahp(2)]PVDCG-OH; thioether N-14), for which the IC50 (cell-based binding high-content assay, mVISTA, the 15th table) worked out at 6.9 nM.

As to `CCCCCCN1CC(=O)N[C@@H](Cc2ccc(O)cc2)C(=O)N[C@@H](CCCC)C(=O)N[C@@H](CC(N)=O)C(=O)N[C@@H](CCCNC(=N)N)C(=O)N(C)[C@@H](CCCC)C(=O)N[C@@H](CCCCC)C(=O)N2CCOC[C@H]2C(=O)N[C@@H](C(C)C)C(=O)N[C@@H](CO)C(=O)N[C@H](C(=O)N[C@@H](CC(=O)NCCOCCOCC(=O)NCCCCCCCCCCC(=O)O)C(=O)O)CSCC(=O)N[C@@H](Cc2ccccc2)C(=O)N[C@@H](Cc2c[nH]c3ccccc23)C(=O)N[C@@H](CC(=O)O)C1=O` [Example 2193] ({CH2CO}-FWD[NHexGly]Y[Nle]NR[NMeNle][Ahp(2)][Morpholine(3S-CO)]VSC[βAsp][AEEA][Aun]-OH; thioether N-14), the IC50 was 16.1 nM.

Consider `CCCCCCN1CC(=O)N[C@@H](Cc2ccc(O)cc2)C(=O)N[C@@H](CC(C)C)C(=O)N[C@@H](CC(N)=O)C(=O)N[C@@H](CCCNC(=N)N)C(=O)N[C@@H](CC(C)C)C(=O)N[C@@H](CCCCC)C(=O)N2CCC[C@H]2C(=O)N[C@@H](C(C)C)C(=O)N[C@@H](C(C)C)C(=O)N[C@H](C(=O)NCCOCCOCC(=O)N[C@@H](CCC(=O)NCCOCCOCC(=O)NCCCCCCCCCCC(=O)O)C(=O)O)CSCC(=O)N[C@@H](Cc2ccccc2)C(=O)N[C@@H](Cc2cccc(C)c2)C(=O)N[C@@H](CC(=O)O)C1=O` [compound 2221] ({CH2CO}-F[Phe(3-Me)]D[NHexGly]YLNRL[Ahp(2)]PVVC[AEEA][γGlu][AEEA][Aun]-OH; thioether N-14), for which the IC50 is 33.5 nM.

Take `CCCCCCN1CC(=O)N[C@@H](Cc2ccc(O)cc2)C(=O)N[C@@H](CCCC)C(=O)N[C@@H](CC(N)=O)C(=O)N[C@@H](CCCNC(=N)N)C(=O)N(C)[C@@H](Cc2ccc(O)cc2)C(=O)N[C@@H](CCCCC)C(=O)N2CCC[C@H]2C(=O)N[C@@H](C(C)C)C(=O)N[C@@H](CC(=O)O)C(=O)N[C@H](C(=O)NCC(=O)O)CSCC(=O)N[C@@H](Cc2ccccc2)C(=O)N[C@@H](Cc2c[nH]c3ccccc23)C(=O)N[C@@H](CC(=O)O)C1=O` [Example 1411] ({CH2CO}-FWD[NHexGly]Y[Nle]NR[NMeY][Ahp(2)]PVDCG-OH; thioether N-14): the IC50 turned out to be 18.6 nM.

Regarding `CCCCCCN1CC(=O)N[C@@H](Cc2ccc(O)cc2)C(=O)N[C@@H](CCCC)C(=O)N[C@@H](CC(=O)O)C(=O)N[C@@H](CCCNC(=N)N)C(=O)N[C@@H](CC(C)C)C(=O)N[C@@H](CCCCC)C(=O)N2CCC[C@H]2C(=O)N[C@@H](C(C)C)C(=O)N[C@@H](CC(=O)O)C(=O)N[C@H](C(=O)N[C@H](CC(=O)O)C(N)=O)CSCC(=O)N[C@@H](Cc2ccccc2)C(=O)N[C@@H](Cc2ccc(O)cc2)C(=O)N[C@@H](CC(=O)O)C1=O` [Example 1003] ({CH2CO}-FYD[NHexGly]Y[Nle]DRL[Ahp(2)]PVDC[dD]-NH2; thioether N-14), under setting [1], the IC50 amounted to 18.8 nM.

With `CCCCCCN1CC(=O)N[C@@H](Cc2ccc(O)cc2)C(=O)N[C@@H](CCCC)C(=O)N[C@@H](CC(N)=O)C(=O)N[C@@H](CCCNC(=N)N)C(=O)N(C)[C@@H](CCCC)C(=O)N[C@@H](CCCCC)C(=O)N(C)[C@@H](C)C(=O)N[C@@H](C(C)CC)C(=O)N[C@@H](CO)C(=O)N[C@H](C(=O)N[C@@H](CC(=O)NCCOCCOCC(=O)NCCCCCCCCCCC(=O)O)C(=O)O)CSCC(=O)N[C@@H](Cc2ccccc2)C(=O)N[C@@H](Cc2c[nH]c3ccccc23)C(=O)N[C@@H](CC(=O)O)C1=O` (some centres unmarked) [Example 2171] ({CH2CO}-FWD[NHexGly]Y[Nle]NR[NMeNle][Ahp(2)][NMeA][Ile(3ξ)]SC[βAsp][AEEA][Aun]-OH; thioether N-14), the IC50 turned out to be 28.8 nM.

As for `CCCCCCN1CC(=O)N[C@@H](Cc2ccc(O)cc2)C(=O)N[C@@H](CC(C)C)C(=O)N[C@@H](CC(N)=O)C(=O)N[C@@H](CCCN)C(=O)N(C)[C@@H](CC(C)C)C(=O)N[C@@H](CCCCC)C(=O)N2CCC[C@H]2C(=O)N[C@@H](C(C)(C)C)C(=O)N[C@@H](CO)C(=O)N[C@H](C(=O)N[C@@H](CCC(=O)NCCCCCCCCCCC(=O)O)C(=O)O)CSCC(=O)N[C@@H](Cc2ccccc2)C(=O)N[C@@H](Cc2ccc(O)cc2)C(=O)N[C@@H](CC(=O)O)C1=O` [Example 2138] ({CH2CO}-FYD[NHexGly]YLN[Orn][NMeL][Ahp(2)]P[Tle]SC[γGlu][Aun]-OH; thioether N-14), the IC50 worked out at 33 nM.

Regarding `CCCCCCN1CC(=O)N[C@@H](Cc2ccc(O)cc2)C(=O)N[C@@H](CCCC)C(=O)N[C@@H](CC(=O)O)C(=O)N[C@@H](CCCNC(=N)N)C(=O)N[C@@H](CC(C)C)C(=O)N[C@@H](CCCCC)C(=O)N2CCC[C@H]2C(=O)N[C@@H](C(C)C)C(=O)N[C@@H](CC(=O)O)C(=O)N[C@H](C(=O)N[C@@H](CC(=O)O)C(N)=O)CSCC(=O)N[C@@H](Cc2cccc(C)c2)C(=O)N[C@@H](Cc2c[nH]c3ccccc23)C(=O)N[C@@H](CC(=O)O)C1=O` [compound 1419] ({CH2CO}-[Phe(3-Me)]WD[NHexGly]Y[Nle]DRL[Ahp(2)]PVDCD-NH2; thioether N-14), the IC50 under setting [2] came to 8.1 nM.

Consider `CCCCCCN1CC(=O)N[C@@H](Cc2ccc(O)cc2)C(=O)N[C@@H](CCCC)C(=O)N[C@@H](CC(=O)O)C(=O)N[C@@H](CCCN)C(=O)N[C@@H](CC(C)C)C(=O)N[C@@H](CCCCC)C(=O)N2CCC[C@H]2C(=O)N[C@@H](C(C)C)C(=O)N[C@@H](CC(=O)O)C(=O)N[C@H](C(=O)N[C@@H](CC(=O)O)C(N)=O)CSCC(=O)N[C@@H](Cc2cccc(C)c2)C(=O)N[C@@H](Cc2c[nH]c3ccccc23)C(=O)N[C@@H](CC(=O)O)C1=O` [compound 1418] ({CH2CO}-[Phe(3-Me)]WD[NHexGly]Y[Nle]D[Orn]L[Ahp(2)]PVDCD-NH2; thioether N-14), for which the IC50 under setting [2] came out at 7.6 nM.

As for `CCCCCCN1CC(=O)N[C@@H](Cc2ccc(O)cc2)C(=O)N[C@@H](CCCC)C(=O)N[C@@H](CC(N)=O)C(=O)N[C@@H](CCCNC(=N)N)C(=O)N[C@@H](CC(C)C)C(=O)N[C@@H](CCCCC)C(=O)N2CCC[C@H]2C(=O)N[C@@H](C(C)C)C(=O)N[C@@H](CC(=O)O)C(=O)N[C@H](C(=O)N[C@@H](CC(N)=O)C(N)=O)CSCC(=O)N[C@@H](Cc2ccc3ccccc3c2)C(=O)N[C@@H](Cc2ccc(O)cc2)C(=O)N[C@@H](CC(=O)O)C1=O` [Ex 1311] ({CH2CO}-[2Nal]YD[NHexGly]Y[Nle]NRL[Ahp(2)]PVDCN-NH2; thioether N-14), under setting [3], the IC50 is 8.3 nM.

Take `CCCCCCN1CC(=O)N[C@@H](Cc2ccc(O)cc2)C(=O)N[C@@H](CC(C)C)C(=O)NCC(=O)N[C@@H](CCCNC(=N)N)C(=O)N[C@@H](CC(C)C)C(=O)N[C@@H](CCCCC)C(=O)N2CCC[C@H]2C(=O)N[C@@H](C(C)C)C(=O)N[C@@H](CC(=O)O)C(=O)N[C@H](C(=O)NCC(=O)O)CSCC(=O)N[C@@H](Cc2ccccc2)C(=O)N[C@@H](Cc2ccc(O)cc2)C(=O)N[C@@H](CC(=O)O)C1=O` [Example 1016] ({CH2CO}-FYD[NHexGly]YLGRL[Ahp(2)]PVDCG-OH; thioether N-14): the half-maximal inhibitory concentration (IC50) under setting [1] was found to be 21 nM.

Turning to `CCCCCCN1CC(=O)N[C@@H](Cc2ccc(O)cc2)C(=O)N[C@@H](CCCC)C(=O)NCC(=O)N[C@@H](CCCNC(=N)N)C(=O)N[C@@H](CC(C)C)C(=O)N[C@@H](CCCCC)C(=O)N2CCC[C@H]2C(=O)N[C@@H](C(C)C)C(=O)N[C@@H](CC(=O)O)C(=O)N[C@H](C(=O)NCC(N)=O)CSCC(=O)N[C@@H](Cc2ccc3ccccc3c2)C(=O)N[C@@H](Cc2ccc(O)cc2)C(=O)N[C@@H](CC(=O)O)C1=O` [Ex 1284] ({CH2CO}-[2Nal]YD[NHexGly]Y[Nle]GRL[Ahp(2)]PVDCG-NH2; thioether N-14), the IC50 under setting [3] turned out to be 3.6 nM.

`CCCCCCN1CC(=O)N[C@@H](Cc2ccc(O)cc2)C(=O)N[C@@H](CC(C)C)C(=O)N[C@@H](CC(N)=O)C(=O)N[C@@H](CCCNC(=N)N)C(=O)N(C)[C@@H](CCCC)C(=O)N[C@@H](CCCCC)C(=O)N2CCC[C@H]2C(=O)N[C@@H](C(C)(C)C)C(=O)N[C@@H](CO)C(=O)N[C@H](C(=O)NCC(N)=O)CSCC(=O)N[C@@H](Cc2ccc(C(N)=O)cc2)C(=O)N[C@@H](Cc2ccc(O)cc2)C(=O)N[C@@H](CC(=O)O)C1=O` [compound 1212] ({CH2CO}-[Phe(4-CONH2)]YD[NHexGly]YLNR[NMeNle][Ahp(2)]P[Tle]SCG-NH2; thioether N-14): the half-inhibitory concentration (IC50) is 13.1 nM.
